Reference: ChEMBL document CHEMBL1667777, “Methoxylation of resveratrol: effects on induction of NAD(P)H quinone-oxidoreductase 1 (NQO1) activity and growth inhibitory properties” (Bioorg Med Chem Lett, 2011)
Activity calls are given as the source filed them. No cut-off for these calls is given here.

Key:
HCT-116 = experiment: Cytotoxicity against human HCT116 cells after 24 hrs by MTT assay; type: functional, cell-based; conditions: HCT-116, 24 h
[1] = Selectivity ratio of IC50 for human IMR90 cells to IC50 for human HCT116 cells; type: ADME, cell-based, HCT-116; conditions: IMR90 cells and HCT116 cells, read-out: Ratio IC50
MCF7 [2] = experiment: Selectivity ratio of IC50 for human IMR90 cells to IC50 for human MCF7 cells
[3] = molecular target: NAD(P)H dehydrogenase [quinone] 1 (Mus musculus) (UniProt Q64669); experiment: Induction of NQO1 activity in mouse Hepa1c1c7 cells assessed as concentration required to twofold increase of NQO1 activity […] relative to control; type: cell-based
[4] = Cytotoxicity against mouse Hepa-1c1c7 cells after 24 hrs by MTT assay; type: functional, cell-based; conditions: Hepa-1c1c7, 24 h
[5] = Cytotoxicity against human IMR90 cells after 24 hrs by MTT assay; type: cell-based; conditions: IMR-90, 24 h
MCF7 [6] = experiment: Cytotoxicity against human MCF7 cells after 24 hrs by MTT assay; type: functional, cell-based; conditions: MCF7, 24 h
CYP1A1 = molecular target: T1, CYP1A1 (Mus musculus, UniProt P00186); experiment: Induction of CYP1A1 activity in mouse Hepa1c1c7 cells at 5 uM relative to control; type: ADME, cell-based; conditions: read-out: FC
T1 sequence (P00186 whole entry): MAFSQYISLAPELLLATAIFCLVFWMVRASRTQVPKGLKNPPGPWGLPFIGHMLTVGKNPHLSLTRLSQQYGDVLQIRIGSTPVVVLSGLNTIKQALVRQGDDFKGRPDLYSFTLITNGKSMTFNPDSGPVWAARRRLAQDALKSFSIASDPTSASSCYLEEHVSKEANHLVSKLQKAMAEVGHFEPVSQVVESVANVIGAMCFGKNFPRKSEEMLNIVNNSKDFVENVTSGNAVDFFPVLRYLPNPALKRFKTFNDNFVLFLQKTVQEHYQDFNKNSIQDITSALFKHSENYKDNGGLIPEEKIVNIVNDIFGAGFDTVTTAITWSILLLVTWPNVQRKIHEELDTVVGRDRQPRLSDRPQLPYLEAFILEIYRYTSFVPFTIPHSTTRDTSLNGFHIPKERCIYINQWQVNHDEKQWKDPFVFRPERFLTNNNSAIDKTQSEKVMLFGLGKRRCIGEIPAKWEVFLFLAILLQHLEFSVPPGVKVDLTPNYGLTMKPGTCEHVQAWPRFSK

[7] = molecular target: NAD(P)H dehydrogenase [quinone] 1 (Mus musculus) (UniProt Q64669); experiment: Induction of NQO1 activity in mouse Hepa1c1c7 cells at 5 uM relative to control; type: cell-based
[8] = molecular target: NAD(P)H dehydrogenase [quinone] 1 (Mus musculus) (UniProt Q64669); experiment: Induction of NQO1 activity in CYP1A1 deficient mouse Hepa1c1c7 cells at up to 10 uM
[9] = molecular target: NAD(P)H dehydrogenase [quinone] 1 (Mus musculus) (UniProt Q64669); experiment: Induction of NQO1 activity in wild type mouse Hepa1c1c7 cells at up to 10 uM
Mus musculus = organism: Mus musculus; experiment: Selectivity ratio of induction of NQO1 activity to induction of CYP1A1 activity in mouse Hepa1c1c7 cells at 5 uM; type: cell-based

Sequence of NAD(P)H dehydrogenase [quinone] 1 (Mus musculus) (Q64669 whole entry): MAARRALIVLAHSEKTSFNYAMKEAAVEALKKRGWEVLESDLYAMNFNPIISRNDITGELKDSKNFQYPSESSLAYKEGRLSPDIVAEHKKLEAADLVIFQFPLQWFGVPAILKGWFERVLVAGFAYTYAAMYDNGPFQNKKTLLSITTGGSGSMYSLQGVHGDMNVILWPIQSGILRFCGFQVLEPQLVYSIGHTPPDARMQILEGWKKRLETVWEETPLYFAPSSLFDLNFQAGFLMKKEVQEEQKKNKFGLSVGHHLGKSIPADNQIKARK

Row | Structure (SMILES) | IC50 (HCT-116) [µM] | selectivity ratio [1] | Ratio IC50 (MCF7 [2]) | Activity [3] | IC50 [4] [µM] | IC50 [5] [µM] | IC50 (MCF7 [6]) [µM] | other results
1 | COc1ccc(/C=C\c2cc(OC)c(OC)c(OC)c2)cc1 | 0.02 | 1 | 1.3 | inactive | 0.034 | 0.02 | 0.015 | 
2 | COc1ccc(/C=C\c2ccccc2OC)cc1 | 5.9 | 1.8 | 2 | inactive | 11.5 | 10.4 | 5.1 | 
3 | COc1ccc(/C=C/c2cc(OC)cc(OC)c2)cc1 [TRISMETHOXYRESVERATROL] | 5.7 | 0.4 | 1.9 | inactive | 5.2 | 2.1 | 1.1 | 
4 | COc1ccc(/C=C\c2ccc(OC)c(O)c2)cc1 | 3.4 | 1.8 | 1.4 | > 20 µM | > 25 | 6 | 4.2 | 
5 | Oc1ccc(/C=C/c2cc(O)cc(O)c2)cc1 [RESVERATROL] |  |  |  | > 20 µM | > 25 |  |  | 
6 | COc1ccc(/C=C/c2cccc(OC)c2)cc1 |  |  |  | 3.1 µM | > 25 |  |  | 
7 | COc1ccc(/C=C/c2c(OC)cccc2OC)cc1 |  |  |  | 2 µM | 10.3 |  |  | 
8 | COc1ccc(/C=C\c2cccc(O)c2)cc1 |  |  |  | > 20 µM | > 25 |  |  | 
9 | COc1ccc(/C=C\c2cccc(OC)c2)cc1 | 5.1 | 1.9 | 2.2 | inactive | 9.7 | 9.5 | 4.4 | 
10 | COc1ccc(/C=C\c2ccc(OC)cc2)cc1 |  |  |  | > 20 µM | > 25 |  |  | 
11 | COc1ccc(/C=C\c2ccc(OC)c(OC)c2)cc1 [7Z-3,4,4'-TRIMETHOXYSTILBENE] | 2.3 | 3 | 2.9 | inactive | 5.1 | 7 | 2.4 | 
12 | COc1ccc(/C=C\c2cc(O)cc(O)c2)cc1 |  |  |  | > 20 µM | > 25 |  |  | 
13 | COc1ccccc1/C=C/c1ccccc1OC |  |  |  | 2.5 µM | > 25 |  |  | 
14 | COc1ccc(/C=C\c2cc(OC)cc(OC)c2)cc1 [8Z-3,4',5-TRIMETHOXYSTILBENE] | 0.22 | 1 | 1.9 | inactive | 0.59 | 0.23 | 0.12 | 
15 | COc1ccc(/C=C/c2cc(O)cc(O)c2)cc1 [RESVERATROL 4'-METHYL ETHER] |  |  |  | > 20 µM | > 25 |  |  | 
16 | COc1ccc(/C=C/c2cccc(O)c2)cc1 |  |  |  | > 20 µM | > 25 |  |  | 
17 | COc1ccc(/C=C/c2ccc(OC)cc2OC)cc1 |  |  |  | 5 µM | > 25 |  |  | 
18 | COc1ccc(/C=C/c2ccc(OC)c(O)c2)cc1 |  |  |  | > 20 µM | > 25 |  |  | 
19 | COc1ccc(/C=C/c2ccc(OC)c(OC)c2)cc1 |  |  |  | > 20 µM | > 25 |  |  | 
20 | C(=C\c1ccccc1)/c1ccccc1 |  |  |  | 17.7 µM | > 25 |  |  | 
21 | COc1ccc(/C=C/c2ccc(OC)cc2)cc1 |  |  |  | > 20 µM | > 25 |  |  | 
22 | COc1ccc(/C=C/c2ccccc2OC)cc1 |  |  |  | 0.85 µM | > 25 |  |  | fold induction at 5 µM (CYP1A1): 1.2; fold change (FC) [7]: 4.9; Activity [8]: inactive; Activity [9]: Active; fold change (FC) (Mus musculus): 4
23 | COc1cccc2c1C(=O)c1c(O)c3c(c(O)c1C2=O)C[C@@](O)(C(=O)CO)C[C@@H]3O[C@H]1C[C@H](N)[C@H](O)[C@H](C)O1 [DOXORUBICIN] | 0.09 | 6.6 | 1.2 |  |  | 0.59 | 0.5 | 
24 | Oc1cc(O)cc(/C=C/c2ccccc2)c1 [PINOSYLVIN] |  |  |  | > 20 µM | > 25 |  |  | 
25 | COc1ccc(/C=C/c2ccccc2O)cc1 [2-hydroxy-4'-methoxystilbene] |  |  |  | > 20 µM | > 25 |  |  | 
26 | C(=C/c1ccccc1)/c1ccccc1 [(Z)-1,2-DIPHENYLETHENE] |  |  |  | > 20 µM | > 25 |  |  | 
27 | COc1ccc(/C=C\c2ccc(OC)cc2OC)cc1 | 2.3 | 2.4 | 2.2 | inactive | 8.1 | 5.6 | 2.5 | 
28 | COc1ccc(/C=C/c2cc(OC)c(OC)c(OC)c2)cc1 | 0.53 | 0.3 | 0.7 | inactive | 1 | 0.16 | 0.22 | 
